Laboratory results reported in patent EP4768487A1, “FUSED LACTAM RING COMPOUND AND USE THEREOF” (Chengdu Zenitar Biomedical Technology Co., Ltd., priority 2023, dated 2025).
Read-outs that look alike come from different tables or passages of the source.

Assays:
[1] = test system: MDA-MB-436 breast cancer subcutaneous xenograft tumor model; assay: In vivo pharmacodynamic study of compound 2 in MDA-MB-436 subcutaneous xenograft tumor model; conditions: oral once daily, 30 days
Protocol: Experimental process: Twenty-four female NOD/SCID mice were used in the experiment. […] All groups were subjected to oral administration once daily. Meanwhile, the mice were weighed every 2 days, and the length and width of the tumors were measured with a vernier caliper. After 30 days of administration, the tumor-bearing mice were anesthetized and sacrificed. The tumor tissues were dissected, weighed, and photographed, and the tumor growth inhibition rates were calculated.

PARP1 = target: T1, PARP1 (Homo sapiens, UniProt P09874); assay: PARP1 enzyme assay (histone-coated plate, chemiluminescence); assay type: biochemical; conditions: PARP1 0.02 nM, DNA 0.8 nM, NAD+ 3.5 µM; read-out: PARP-1 IC50
T1 construct: purchased BPS 80501

[2] = Cerebrospinal fluid and plasma distribution in vivo; conditions: rat, male rats, intravenous 5 mg/kg, n = 1
[3] = cerebrospinal fluid, read-out: Cerebrospinal fluid

T1 sequence (P09874 whole entry): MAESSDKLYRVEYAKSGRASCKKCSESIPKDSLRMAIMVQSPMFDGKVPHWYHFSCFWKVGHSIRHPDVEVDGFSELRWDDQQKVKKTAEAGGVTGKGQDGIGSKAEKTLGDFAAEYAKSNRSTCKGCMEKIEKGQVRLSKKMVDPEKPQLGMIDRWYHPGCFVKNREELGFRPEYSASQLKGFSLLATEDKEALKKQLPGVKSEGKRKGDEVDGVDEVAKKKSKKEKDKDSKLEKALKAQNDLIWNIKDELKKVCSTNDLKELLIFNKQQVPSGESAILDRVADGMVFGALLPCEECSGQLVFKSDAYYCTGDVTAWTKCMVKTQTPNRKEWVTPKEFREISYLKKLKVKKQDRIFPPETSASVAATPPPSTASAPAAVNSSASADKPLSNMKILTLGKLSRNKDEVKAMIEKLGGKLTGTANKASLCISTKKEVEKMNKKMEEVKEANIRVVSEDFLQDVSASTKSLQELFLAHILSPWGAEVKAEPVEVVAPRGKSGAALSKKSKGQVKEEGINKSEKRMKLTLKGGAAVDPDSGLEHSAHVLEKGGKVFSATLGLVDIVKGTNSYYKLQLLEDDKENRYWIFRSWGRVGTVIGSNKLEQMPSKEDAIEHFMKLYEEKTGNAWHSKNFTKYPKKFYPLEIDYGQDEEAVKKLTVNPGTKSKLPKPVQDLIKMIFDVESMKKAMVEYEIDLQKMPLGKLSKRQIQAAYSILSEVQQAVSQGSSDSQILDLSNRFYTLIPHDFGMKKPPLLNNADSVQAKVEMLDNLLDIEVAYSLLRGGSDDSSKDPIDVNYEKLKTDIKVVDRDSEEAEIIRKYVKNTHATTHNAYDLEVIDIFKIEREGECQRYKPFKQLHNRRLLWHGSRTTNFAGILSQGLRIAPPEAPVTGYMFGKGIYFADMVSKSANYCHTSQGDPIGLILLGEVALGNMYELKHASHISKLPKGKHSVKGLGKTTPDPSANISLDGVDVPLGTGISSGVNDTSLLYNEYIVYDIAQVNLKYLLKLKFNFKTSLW

IC50 (PARP1)	concentration at 0.25 h [2, 3]	concentration at 2 h [2, 3]	concentration at 0.25 h ([2]; plasma, read-out: Plasma)	concentration at 2 h ([2]; plasma, read-out: Plasma)	SMILES	tumor growth inhibition rate ([1]; 1 mg/kg)	tumor growth inhibition rate ([1]; 3 mg/kg)	tumor inhibitory effect compared with the reference drug Olaparib 100 mg/kg group (in words) ([1]; 3 mg/kg)
					CCc1cc2c([nH]c1=O)CC(CN1CCN(c3ccc(C(=O)NC)nc3F)CC1)OC2 (centres unmarked) [Compound 2, 5-(4-((3-Ethyl-2-oxo-1,5,7,8-tetrahydro-2H-pyrano[4,3-b]pyridin-7-yl)methyl)piperazin-1-yl)-6-fluoro-N-methyl picolinamide]	92.61%	95.74%	significantly superior
≤ 50 nM	60 ng/g	19 ng/g	8790 ng/mL	5560 ng/mL	CNC(=O)c1ccc(N2CCN(CC3Cc4[nH]c(=O)c(C)cc4CO3)CC2)c(Cl)n1 (centres unmarked) [Example 74, 6-Chloro-N-methyl-5-(4-((3-methyl-2-oxo-1,5,7,8-tetrahydro-2H-pyrano[4,3-b]pyridin-7-yl)methyl)piperazin-1-yl)picolinamide]			
